Reference: patent US5350757A, “Substituted 1,2,3,4-tetrahydroisoquinolines with angiotensin II receptor antagonist properties” (Warner-Lambert Company, priority 1993, dated 1994)

Key:
[1] = system: angiotensin type 2 (AT2); assay: AT2 binding assay (rabbit uterus binding assay); conditions: AT2 versus AT1
Source text: (§1) A typical compound active in a rabbit uterus binding assay for detecting angiotensin type 2 (AT2) antagonists is compound 6 below. AT2 Binding Assay is a modification of the procedure by D. T. Dudley, et al, Mol. Pharmacol. 38:370 (1990) .

[2] = molecular target: T1, angiotensin type 2 (AT2) (Oryctolagus cuniculus, UniProt G1T351); assay: AT2 binding assay (rabbit uterus binding assay); conditions: for IC50: rabbit uterus binding assay
T1 construct: from tissue; host or cells: rabbit uterus
T1 sequence (G1T351 1-363): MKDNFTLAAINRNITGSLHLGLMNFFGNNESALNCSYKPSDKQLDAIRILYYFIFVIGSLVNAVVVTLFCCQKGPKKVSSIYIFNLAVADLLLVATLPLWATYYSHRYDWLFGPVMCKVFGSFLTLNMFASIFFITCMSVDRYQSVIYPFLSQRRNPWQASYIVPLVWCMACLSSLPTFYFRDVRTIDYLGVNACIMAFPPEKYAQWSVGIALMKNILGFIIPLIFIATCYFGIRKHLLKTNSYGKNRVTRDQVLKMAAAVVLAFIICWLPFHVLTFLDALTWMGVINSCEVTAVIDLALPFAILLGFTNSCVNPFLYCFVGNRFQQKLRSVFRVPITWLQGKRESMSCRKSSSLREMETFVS
Source text: as §1

[3] = system: AT1; assay: AT1 binding assay; conditions: at 10^-5 M concentration
[4] = system: AT-1 receptors; conditions: cited from earlier work

SMILES	IC50 [2]	also measured
COc1ccc2c(c1OCc1ccccc1)CC(C(=O)O)N(C(=O)C(c1ccccc1)c1ccccc1)C2 (racemic) [Example 20, (RS)-2-(Diphenylacetyl)-1,2,3,4-tetrahydro-6-methoxy-5-(phenylmethoxy)-3-isoquinolinecarboxylic acid]	2.8 nM	selectivity for the AT2 site [1]: highly selective for the AT2 site; binding affinity for the AT2 receptor site, in words [2]: high binding affinity; AT1 binding assay activity [3]: inactive
COc1cc2c(cc1OCc1ccccc1)CC(C(=O)O)N(C(=O)C(c1ccccc1)c1ccccc1)C2 (racemic) [Example 21, (RS)-2-(Diphenylacetyl)-1,2,3,4-tetrahydro-7-methoxy-6-(phenylmethoxy) -3-isoquinolinecarboxylic acid]	58.5 nM	–
COc1ccc2c(c1OCCc1ccccc1)CC(C(=O)O)N(C(=O)C(c1ccccc1)c1ccccc1)C2 (racemic) [Example 22, (RS)-2-(Diphenylacetyl)-1,2,3,4-tetrahydro-6-methoxy-5-(2-phenylethoxy)-3-isoquinolinecarboxylic acid]	8.9 nM	–
COc1ccc2c(c1OCc1ccccc1)CC(C(=O)O)N(C(=O)C(c1ccc(Cl)cc1)c1ccc(Cl)cc1)C2 (racemic) [Example 23, (RS)-2-[Bis(4-chlorophenyl)acetyl]-1,2,3,4-tetrahydro-6-methoxy-5-(phenylmethoxy)-3-isoquinolinecarboxylic acid]	24.2 nM	–
COc1ccc2c(c1OCc1ccccc1)CC(C(=O)O)N(C(=O)C(c1ccccc1)C1CCCC1)C2 (racemic) [Example 24, (RS)-2-(Cyclopentylphenylacetyl)-1,2,3,4-tetrahydro-6-methoxy-5-(phenylmethoxy)-3-isoquinolinecarboxylic acid]	1.6 nM	–
COc1ccc2c(c1OCc1ccccc1)CC(C(=O)O)N(C(=O)Cc1c(Cl)cccc1Cl)C2 (racemic) [Example 25, (RS)-2-[(2,6-Dichlorophenyl)acetyl]-1,2,3,4-tetrahydro-6-methoxy-5-(phenylmethoxy)-3-isoquinolinecarboxylic acid]	117 nM	–
COc1ccc2c(c1OCc1ccccc1)CC(C(=O)O)N(C(=O)N(C)c1ccccc1)C2 (racemic) [Example 26]	8.4 nM	–
CCCCc1nc(Cl)c(CO)n1Cc1ccc(-c2ccccc2-c2nn[nH]n2)cc1 [Dup753]	–	selective antagonism of AT-1 receptors [4]: selectively antagonized

More lines, main results first:

IC50 [2]	SMILES	also measured
1110 nM	COc1ccc(NC(=O)N2Cc3ccc(OC)c(OCc4ccccc4)c3CC2C(=O)O)cc1 (racemic) [Example 27, (RS)-1,2,3,4-Tetrahydro-6-methoxy-2-[[(4-methoxyphenyl)amino]carbonyl]-5-(phenylmethoxy)-3-isoguinolinecarboxylic acid]	–
151 nM	CCOC(=O)C1Cc2c(ccc(OC)c2OCc2ccccc2)CN1C(=O)C(c1ccccc1)c1ccccc1 (racemic) [Example 30, (RS)-2-(Diphenylacetyl)-1,2,3,4-tetrahydro-6-methoxy-5-phenylmethoxy-3-isoquinolinecarboxylic acid, ethyl ester]	–
752 nM	COc1ccc2c(c1OCc1ccc(C(=O)O)cc1)CC(C(=O)O)N(C(=O)C(c1ccccc1)c1ccccc1)C2 (racemic) [Example 33, (RS)-5-(4-Carboxyphenylmethoxy)-2-(diphenylacetyl)-1,2,3,4-tetrahydro-6-methoxy-3-isoquinolinecarboxylic acid]	–
1.9 nM	COc1ccc(COc2c(OC)ccc3c2CC(C(=O)O)N(C(=O)C(c2ccccc2)c2ccccc2)C3)cc1C (racemic) [Example 35]	–
